# Reference: US20220211796A1, “PEPTIDE ANTIBIOTICS AND METHODS OF USE THEREOF” (priority 2019, published 2022)
# Experiments:
# [1] = read-out: Kd of vancomycin:D-Ala-D-Ala complex; cited from earlier work
# [2] = system: HeLa cells; test: Mammalian cytotoxicity (MTT) assay; settings: 24 h, b121: concentrations up to 256 μg/ml
# Experimental: Cervical cancer cells (HeLa) were cultured in Dulbecco's Modified Eagle's medium (DMEM) (Invitrogen #11995-073) supplemented with 10% bovine calf serum at 37° C., 5% CO2, and seeded (5×10^3 cells/well) in 96-well plate flat-bottomed plate for 24 h before the assay. […] After washing the cells with PBS, the cells were subjected to the standard yellow tetrazolium (3-(4,5-dimethylthiazol-2-yl)-2,5-diphenyltetrazolium bromide (MTT) assay protocol at final concentration of 0.5 mg/ml for 4 h in a humidified 5% CO2 atmosphere at 37° C. MTT solution was then aspirated, and the purple formazan crystals were resuspended in DMSO by incubation for 5 min at 37° C. The absorbance at 540 nm was then read using a microplate reader. Viability control (100% viability) was assigned to samples with only HeLa cells and DMEM media, 0% viability was assigned to samples with 1% added Triton-X-100 and no peptide. Experiments were performed as triplicates at different days.
# [3] = system: E. faecalis ATCC 29121; test: microbe, parasite or virus in culture
# Experimental: (§1) The L-peptides identified from five different phage display libraries were catalogued as described previously and selected sequences were synthesized in D-enantiomeric form by SPPS for further investigation in several biological assays.
# (§2) MICs were determined according to a 96-well microdilution protocol outlined by the Clinical and Laboratory Standard Institute (CLSI) guideline with modifications for peptide antibiotics reported by Wiegand et al.^35 Two-fold serial peptide dilutions were performed to go from 2560 μg/ml to 5 μg/ml in0.2% BSA and 0.01% acetic acid buffer in 96-well polypropylene plates (COSTAR, #3879). Dilution of bacterial suspensions (1:200) of different bacterial strains that were grown until 0.5 McFarland standard were prepared to obtain a final inoculum concentration of 8×10^5 CFU/ml in Mueller-Hinton broth.
# [4] = system: Methicillin-resistant S. aureus (MRSA) ATCC 43300; test: microbe, parasite or virus in culture
# Experimental: as §1, §2
# [5] = system: B. subtilis ATCC 6633; test: microbe, parasite or virus in culture
# Experimental: as §1, §2
# [6] = system: high level vancomycin resistant E. faecium (vanA) ATCC 51559; test: microbe, parasite or virus in culture
# Experimental: as §1, §2
# [7] = system: E. coli ATCC 25992; test: microbe, parasite or virus in culture
# Experimental: as §1, §2
# [8] = system: S. aureus ATCC 6538; test: microbe, parasite or virus in culture
# Experimental: as §1, §2
# [9] = system: low level vancomycin resistant E. faecium (vanB) ATCC 51299; test: microbe, parasite or virus in culture
# Experimental: as §1, §2
# [10] = relative to D-Ala-D-Ala precursor; cited from earlier work
# [11] = system: human red blood cells (hRBC); test: Hemolytic activity; type: cell-based; settings: 0.25% hRBC, 37° C., 1 h
# Experimental: Fresh red human blood cells (hRBC) were washed and centrifuged at 3000 rpm for 5 min at 4° C. with PBS until a clear solution was obtained. Two-fold serial dilutions of each peptide in PBS from 0.5 μg/ml to 256 μg/ml were incubated with 0.25% (v/v) hRBC suspension at 37° C. for 1 h, and then centrifuged for 5 min at 3500 rpm in 96-well plate. 50 μl of the supernatant from each well was diluted with 50 μl pure water, and the OD at 415 nm was measured using microplate reader. Melittin at the same concentrations (200 μg/ml for complete lysis) was used as a positive control. Percent hemolysis was calculated according to the equation: […]
# where complete hemolysis was defined as the average hemolysis of all wells containing a final concentration of melittin ranging from 50 to 400 μg/ml. Experiments were performed as triplicates at different days.
smiles,measurement,setting,value
"CN[C@H](CC(C)C)C(=O)N[C@H]1C(=O)N[C@@H](CC(N)=O)C(=O)N[C@H]2C(=O)N[C@H]3C(=O)N[C@H](C(=O)N[C@H](C(=O)O)c4cc(O)cc(O)c4-c4cc3ccc4O)[C@H](O)c3ccc(c(Cl)c3)Oc3cc2cc(c3O[C@@H]2O[C@H](CO)[C@@H](O)[C@H](O)[C@H]2O[C@H]2C[C@](C)(N)[C@H](O)[C@H](C)O2)Oc2ccc(cc2Cl)[C@H]1O [P1, Vancomycin, reference compound]",Kd,[1],~1 µM
same,cytotoxicity on HeLa cells,[2],non-toxic
same,MIC,"[3]; Enterococcus faecalis, ATCC29121, read-out: MIC E. faecalis",1 µg/mL
same,MIC E. faecalis,"[3]; Table 6, E. faecalis ATCC29121",1 µg/mL
same,MIC,"[4]; Staphylococcus aureus, read-out: MIC MRSA",0.5 µg/mL
same,MIC MRSA,"[4]; Table 6, MRSA ATCC43300",0.5 µg/mL
same,MIC,"[5]; Bacillus subtilis, ATCC6633, read-out: MIC B. subtilis",0.5 µg/mL
same,MIC B. subtilis,"[5]; Table 6, B. subtilis ATCC6633",0.5 µg/mL
same,activity against vanA / high-level vancomycin-resistant strain,[6],no activity
same,MIC,"[6]; Enterococcus faecium, ATCC51559 / VRE, read-out: MIC VRE (vanA)",> 256 µg/mL
same,MIC VRE (vanA),"[6]; Table 6, high level vancomycin resistant E. faecium ATCC51559",>256 µg/mL
same,MIC,"[7]; Escherichia coli, ATCC25992, read-out: MIC E. coli",> 256 µg/mL
same,MIC E. coli,"[7]; Table 6, E. Coli ATCC25992",>256 µg/mL
same,MIC,"[8]; Staphylococcus aureus, ATCC6538, read-out: MIC S. aureus",0.5 µg/mL
same,MIC S. aureus,"[8]; Table 6, S. aureus ATCC6538",0.5 µg/mL
same,MIC,"[9]; Enterococcus faecium, ATCC51299 / VRE, read-out: MIC VRE (vanB)",32 µg/mL
same,MIC VRE (vanB),"[9]; Table 6, low level vancomycin resistant E. faecium ATCC51299",32 µg/mL
same,reduction of binding affinity on D-alanine to D-lactate substitution,[10],~1000 fold
same,percentage hemolysis of hRBCs,[11],0%
